{
  "source": "paper PMC3959874",
  "about": "(European journal of dermatology : EJD, 2013)",
  "key": {"[1]": {"target": "Muscarinic M3 (Homo sapiens, UniProt P20309)", "sequence (P20309 whole entry)": "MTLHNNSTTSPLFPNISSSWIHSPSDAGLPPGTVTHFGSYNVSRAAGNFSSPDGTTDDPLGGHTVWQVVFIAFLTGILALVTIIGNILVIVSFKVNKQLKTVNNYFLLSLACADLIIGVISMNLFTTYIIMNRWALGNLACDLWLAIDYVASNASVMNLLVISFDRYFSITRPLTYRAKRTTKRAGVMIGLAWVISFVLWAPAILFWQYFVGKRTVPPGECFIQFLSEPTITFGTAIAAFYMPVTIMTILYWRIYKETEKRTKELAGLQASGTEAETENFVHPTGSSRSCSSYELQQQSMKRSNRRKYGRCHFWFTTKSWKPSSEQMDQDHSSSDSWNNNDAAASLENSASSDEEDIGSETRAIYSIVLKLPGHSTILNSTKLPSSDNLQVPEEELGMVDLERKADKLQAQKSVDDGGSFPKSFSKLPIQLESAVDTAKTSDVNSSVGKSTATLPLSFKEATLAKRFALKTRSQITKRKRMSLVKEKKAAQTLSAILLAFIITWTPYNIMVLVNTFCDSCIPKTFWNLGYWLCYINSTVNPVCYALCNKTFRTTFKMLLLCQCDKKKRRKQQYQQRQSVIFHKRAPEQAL", "format": "binding", "details": "10 μM; 25 °C, 120 min"}, "[2]": {"system": "Potassium Channel [KATP]", "assay": "Radioligand binding assay", "parameters": "species or system human", "details": "10 μM; 25 °C, 120 min"}, "[3]": {"system": "murine macrophage cell line RAW 264.7", "assay": "Cytokine induction", "format": "cell-based", "details": "RAW 264.7 cells, graded doses overnight, ELISA (figure 1A)"}, "[4]": {"target": "Dopamine D1 (Homo sapiens, UniProt P21728)", "assay": "Radioligand binding assay", "details": "10 μM; 37 °C, 120 min"}, "[5]": {"target": "Interleukin IL-1 (Mus musculus, UniProt P13504)", "assay": "Radioligand binding assay", "details": "10 μM; 37 °C, 120 min"}, "[6]": {"target": "Transporter, GABA (Rattus norvegicus, UniProt P23978)", "assay": "Radioligand binding assay", "details": "10 μM; 25 °C, 20 min"}, "[7]": {"target": "Prostanoid EP4 (Homo sapiens, UniProt P35408)", "assay": "Radioligand binding assay", "details": "10 μM; 25 °C, 120 min"}, "[8]": {"target": "Epidermal Growth Factor (EG F) (Homo sapiens, UniProt P00533)", "assay": "Radioligand binding assay", "details": "10 μM; 25 °C, 60 min"}, "[9]": {"target": "Dopamine D4.2 (Homo sapiens, UniProt P21917, DEL265-296)", "assay": "Radioligand binding assay", "details": "10 μM; 25 °C, 120 min"}, "[10]": {"target": "Opiate n (OP3, MOP) (Homo sapiens, UniProt P35372)", "sequence (P35372 whole entry)": "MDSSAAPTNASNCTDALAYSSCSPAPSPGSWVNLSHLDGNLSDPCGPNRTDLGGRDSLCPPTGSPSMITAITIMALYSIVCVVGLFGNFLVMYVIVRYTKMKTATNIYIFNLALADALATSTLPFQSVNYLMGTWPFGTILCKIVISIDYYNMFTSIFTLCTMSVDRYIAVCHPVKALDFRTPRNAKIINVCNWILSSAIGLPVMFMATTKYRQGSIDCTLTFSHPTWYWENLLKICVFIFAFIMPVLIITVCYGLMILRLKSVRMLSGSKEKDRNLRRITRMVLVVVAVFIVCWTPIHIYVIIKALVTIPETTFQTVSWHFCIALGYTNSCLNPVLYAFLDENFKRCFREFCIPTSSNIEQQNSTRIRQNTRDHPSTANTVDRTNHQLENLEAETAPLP", "assay": "Radioligand binding assay", "details": "10 μM; 25 °C, 60 min"}, "[11]": {"system": "Calcium Channel L-Type, Dihydropyridine", "assay": "Radioligand binding assay", "parameters": "species or system rat", "details": "10 μM; 25 °C, 90 min"}, "[12]": {"target": "Platelet Activating Factor (PA F) (Homo sapiens, UniProt P25105)", "sequence (P25105 whole entry)": "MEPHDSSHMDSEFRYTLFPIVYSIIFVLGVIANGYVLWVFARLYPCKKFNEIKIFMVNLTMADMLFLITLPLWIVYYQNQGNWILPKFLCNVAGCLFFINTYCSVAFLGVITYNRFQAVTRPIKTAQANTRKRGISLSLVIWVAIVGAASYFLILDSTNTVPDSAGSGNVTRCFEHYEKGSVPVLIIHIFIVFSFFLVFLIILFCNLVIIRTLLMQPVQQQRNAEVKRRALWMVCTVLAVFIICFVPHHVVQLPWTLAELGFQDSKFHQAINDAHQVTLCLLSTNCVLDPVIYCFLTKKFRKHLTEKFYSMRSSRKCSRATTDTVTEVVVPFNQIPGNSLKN", "assay": "Radioligand binding assay", "details": "10 μM; 25 °C, 180 min"}, "[13]": {"target": "Muscarinic M2 (Homo sapiens, UniProt P08172)", "assay": "Radioligand binding assay", "details": "10 μM; 25 °C, 120 min"}, "[14]": {"target": "Neuropeptide Y Y2 (Homo sapiens, UniProt P49146)", "assay": "Radioligand binding assay", "details": "10 μM; 37 °C, 120 min"}, "[15]": {"target": "Adrenergic a1D (Homo sapiens, UniProt P25100)", "assay": "Radioligand binding assay", "details": "10 μM; 25 °C, 60 min"}, "[16]": {"target": "Nicotinic Acetylcholine a1, Bungarotoxin (Homo sapiens, UniProt P02708+P07510+Q07001)", "assay": "Radioligand binding assay", "details": "10 μM; 25 °C, 120 min"}, "[17]": {"target": "Histamine H3 (Homo sapiens, UniProt Q9Y5N1)", "assay": "Radioligand binding assay", "details": "10 μM; 25 °C, 120 min"}, "[18]": {"system": "Glutamate, NMDA, Agonism", "assay": "Radioligand binding assay", "parameters": "species or system rat", "details": "10 μM; 4 °C, 20 min"}, "[19]": {"system": "TLR7", "assay": "In vitro TLR7-dependent cytokine induction, overall potency comparison", "format": "cell-based"}, "[20]": {"target": "Transporter, Serotonin (5-Hyd roxytryptamine) (SERT) (Homo sapiens, UniProt P31645)", "sequence (P31645 whole entry)": "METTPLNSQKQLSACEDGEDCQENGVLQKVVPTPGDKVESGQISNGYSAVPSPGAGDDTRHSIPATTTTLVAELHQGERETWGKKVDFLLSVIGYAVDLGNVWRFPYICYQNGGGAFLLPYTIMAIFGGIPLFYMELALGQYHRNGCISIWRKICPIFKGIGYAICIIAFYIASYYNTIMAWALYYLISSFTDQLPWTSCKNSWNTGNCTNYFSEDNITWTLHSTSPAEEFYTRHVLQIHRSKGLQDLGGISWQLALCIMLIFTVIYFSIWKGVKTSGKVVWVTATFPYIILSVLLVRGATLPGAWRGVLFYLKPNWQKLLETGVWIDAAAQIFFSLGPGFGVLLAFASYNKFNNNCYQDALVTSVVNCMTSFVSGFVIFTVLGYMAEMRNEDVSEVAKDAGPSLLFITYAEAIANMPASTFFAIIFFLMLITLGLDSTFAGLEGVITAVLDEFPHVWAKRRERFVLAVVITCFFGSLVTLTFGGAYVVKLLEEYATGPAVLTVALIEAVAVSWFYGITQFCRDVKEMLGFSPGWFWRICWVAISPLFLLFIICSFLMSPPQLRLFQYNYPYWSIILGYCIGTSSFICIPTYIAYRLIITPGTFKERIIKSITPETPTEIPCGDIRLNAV", "format": "binding", "details": "10 μM; 25 °C, 60 min"}, "[21]": {"target": "Serotonin (5-Hydroxytryptam ine) 5-HT1A (Homo sapiens, UniProt P08908)", "sequence (P08908 whole entry)": "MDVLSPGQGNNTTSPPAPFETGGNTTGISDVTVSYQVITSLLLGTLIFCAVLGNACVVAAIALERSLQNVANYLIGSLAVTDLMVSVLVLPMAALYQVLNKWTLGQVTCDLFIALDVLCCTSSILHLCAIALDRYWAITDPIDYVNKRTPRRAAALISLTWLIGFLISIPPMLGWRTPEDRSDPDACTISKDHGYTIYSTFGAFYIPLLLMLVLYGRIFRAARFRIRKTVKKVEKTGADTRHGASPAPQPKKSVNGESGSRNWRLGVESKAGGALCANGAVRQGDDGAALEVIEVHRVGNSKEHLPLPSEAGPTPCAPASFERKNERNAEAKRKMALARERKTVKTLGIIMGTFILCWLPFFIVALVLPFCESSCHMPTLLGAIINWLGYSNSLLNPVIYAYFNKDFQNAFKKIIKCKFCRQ", "assay": "Radioligand binding assay", "details": "10 μM; 25 °C, 60 min"}, "[22]": {"target": "CYP450, 2C9 (Homo sapiens, UniProt P11712)", "sequence (P11712 whole entry)": "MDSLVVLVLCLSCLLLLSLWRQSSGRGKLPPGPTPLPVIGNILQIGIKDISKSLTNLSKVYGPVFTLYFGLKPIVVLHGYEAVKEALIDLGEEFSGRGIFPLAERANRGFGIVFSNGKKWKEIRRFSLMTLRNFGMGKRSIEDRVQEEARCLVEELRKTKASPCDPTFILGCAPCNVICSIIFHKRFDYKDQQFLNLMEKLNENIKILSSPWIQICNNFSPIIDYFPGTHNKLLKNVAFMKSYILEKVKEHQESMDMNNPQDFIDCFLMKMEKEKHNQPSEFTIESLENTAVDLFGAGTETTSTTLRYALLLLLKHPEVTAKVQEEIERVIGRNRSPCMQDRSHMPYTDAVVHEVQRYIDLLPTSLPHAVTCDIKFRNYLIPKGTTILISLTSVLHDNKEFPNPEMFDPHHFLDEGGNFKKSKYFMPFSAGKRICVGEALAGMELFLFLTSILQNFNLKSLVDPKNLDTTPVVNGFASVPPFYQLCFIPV", "assay": "Cytochrome P450 enzyme assay", "format": "in vitro ADME", "details": "10 μM; 37 °C, 45 min"}, "[23]": {"system": "Rolipram", "assay": "Radioligand binding assay", "parameters": "species or system rat", "details": "10 μM; 4 °C, 60 min"}, "[24]": {"system": "Purinergic P2x", "assay": "Radioligand binding assay", "parameters": "species or system rabbit", "details": "10 μM; 25 °C, 30 min"}, "[25]": {"system": "human whole blood", "assay": "Cytokine induction in human whole blood assay", "format": "cell-based", "details": "three donors (figures 1D–F)"}, "[26]": {"target": "Estrogen ERa (Homo sapiens, UniProt P03372)", "sequence (P03372 whole entry)": "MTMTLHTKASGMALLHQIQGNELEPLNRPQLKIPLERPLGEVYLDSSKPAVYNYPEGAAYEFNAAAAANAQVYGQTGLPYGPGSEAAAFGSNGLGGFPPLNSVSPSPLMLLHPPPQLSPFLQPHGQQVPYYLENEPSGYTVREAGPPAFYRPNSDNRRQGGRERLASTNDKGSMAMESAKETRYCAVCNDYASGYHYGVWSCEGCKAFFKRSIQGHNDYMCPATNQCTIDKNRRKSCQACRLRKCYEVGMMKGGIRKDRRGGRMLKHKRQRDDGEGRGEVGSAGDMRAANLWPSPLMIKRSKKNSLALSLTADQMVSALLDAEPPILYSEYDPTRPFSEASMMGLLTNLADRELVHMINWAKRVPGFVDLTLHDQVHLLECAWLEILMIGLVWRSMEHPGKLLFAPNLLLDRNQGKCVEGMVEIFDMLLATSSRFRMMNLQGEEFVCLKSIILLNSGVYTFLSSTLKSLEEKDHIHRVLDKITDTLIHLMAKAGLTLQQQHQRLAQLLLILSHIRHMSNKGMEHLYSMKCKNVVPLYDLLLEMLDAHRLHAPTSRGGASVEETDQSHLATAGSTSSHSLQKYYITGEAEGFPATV", "assay": "Radioligand binding assay", "details": "10 μM; 25 °C, 120 min"}, "[27]": {"target": "Adenosine A1 (Homo sapiens, UniProt P30542)", "assay": "Radioligand binding assay", "details": "10 μM; 25 °C, 90 min"}, "[28]": {"target": "Adrenergic a1B (Rattus norvegicus, UniProt P15823)", "assay": "Radioligand binding assay", "details": "10 μM; 25 °C, 60 min"}, "[29]": {"target": "Adrenergic β1 (Homo sapiens, UniProt P08588)", "assay": "Radioligand binding assay", "details": "10 μM; 25 °C, 120 min"}, "[30]": {"system": "GABAA, Muscimol, Central", "assay": "Radioligand binding assay", "parameters": "species or system rat", "details": "10 μM; 4 °C, 10 min"}, "[31]": {"target": "Opiate 51 (OP1, DOP) (Homo sapiens, UniProt P41143)", "sequence (P41143 whole entry)": "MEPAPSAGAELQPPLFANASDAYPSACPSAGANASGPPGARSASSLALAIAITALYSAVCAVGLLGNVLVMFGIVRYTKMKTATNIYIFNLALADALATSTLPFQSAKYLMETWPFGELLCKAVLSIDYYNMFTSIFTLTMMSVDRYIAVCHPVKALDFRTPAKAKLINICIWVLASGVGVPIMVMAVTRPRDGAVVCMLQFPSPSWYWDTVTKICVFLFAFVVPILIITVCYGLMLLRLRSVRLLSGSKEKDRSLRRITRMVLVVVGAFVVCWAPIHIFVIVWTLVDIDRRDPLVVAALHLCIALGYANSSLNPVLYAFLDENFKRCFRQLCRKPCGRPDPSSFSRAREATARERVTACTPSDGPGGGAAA", "assay": "Radioligand binding assay", "details": "10 μM; 25 °C, 60 min"}, "[32]": {"target": "CYP450, 2D6 (Homo sapiens, UniProt P10635)", "assay": "Cytochrome P450 enzyme assay", "format": "in vitro ADME", "details": "10 μM; 37 °C, 45 min"}, "[33]": {"target": "Sigma al (Homo sapiens, UniProt Q99720)", "assay": "Radioligand binding assay", "details": "10 μM; 37 °C, 240 min"}, "[34]": {"system": "Sodium Channel, Site 2 289593", "assay": "Radioligand binding assay", "parameters": "species or system rat", "details": "10 μM; 37 °C, 60 min"}, "[35]": {"system": "Glutamate, NMDA, Phencyclidine", "assay": "Radioligand binding assay", "parameters": "species or system rat", "details": "10 μM; 25 °C, 45 min"}, "[36]": {"target": "Serotonin (5-Hydroxytryptam ine) 5-HT2B (Homo sapiens, UniProt P41595)", "assay": "Radioligand binding assay", "details": "10 μM; 37 °C, 60 min"}, "[37]": {"target": "CYP450, 3A4 (Homo sapiens, UniProt P08684)", "assay": "Cytochrome P450 enzyme assay", "format": "in vitro ADME", "details": "10 μM; 37 °C, 30 min"}, "[38]": {"target": "Leukotriene, Cysteinyl CysLT 1 (Homo sapiens, UniProt Q9Y271)", "assay": "Radioligand binding assay", "details": "10 μM; 25 °C, 30 min"}, "[39]": {"target": "Serotonin (5-Hydroxytryptam ine) 5-HT3 (Homo sapiens, UniProt P46098)", "sequence (P46098 24-478)": "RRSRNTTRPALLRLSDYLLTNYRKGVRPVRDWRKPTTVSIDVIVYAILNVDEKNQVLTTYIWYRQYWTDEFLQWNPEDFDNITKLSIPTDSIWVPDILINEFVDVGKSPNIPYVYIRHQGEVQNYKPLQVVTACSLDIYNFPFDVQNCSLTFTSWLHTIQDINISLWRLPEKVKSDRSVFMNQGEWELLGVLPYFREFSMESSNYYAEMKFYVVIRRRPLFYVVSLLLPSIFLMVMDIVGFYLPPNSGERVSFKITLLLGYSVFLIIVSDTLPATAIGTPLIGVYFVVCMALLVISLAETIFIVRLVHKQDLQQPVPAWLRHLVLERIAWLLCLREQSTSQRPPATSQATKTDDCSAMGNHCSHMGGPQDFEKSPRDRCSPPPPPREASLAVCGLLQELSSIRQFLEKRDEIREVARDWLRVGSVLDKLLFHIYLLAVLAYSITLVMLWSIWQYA", "assay": "Radioligand binding assay", "details": "10 μM; 37 °C, 60 min"}, "[40]": {"target": "Adrenergic β2 (Homo sapiens, UniProt P07550)", "assay": "Radioligand binding assay", "details": "10 μM; 25 °C, 60 min"}},
  "data": [
    {"smiles": "CCCCCCCCCCCC(=O)OC[C@@H](COP(=O)(O)OCCNC(=O)c1ccc(Cn2c(=O)[nH]c3c(N)nc(OCCOC)nc32)cc1)OC(=O)CCCCCCCCCCC", "note": "[TMX-202]", "values": [
      {"measurement": "Percent inhibition of specific radioligand binding", "setting": "[1]", "result": "−6", "unit": "%"},
      {"measurement": "Percent inhibition of specific radioligand binding", "setting": "[2]", "result": 8, "unit": "%"},
      {"measurement": "Potency of mTNFα induction compared with IMQ", "setting": "[3]", "result": "more potent cytokine inducer"},
      {"measurement": "Percent inhibition of specific radioligand binding", "setting": "[4]", "result": 15, "unit": "%"},
      {"measurement": "Percent inhibition of specific radioligand binding", "setting": "[5]", "result": 5, "unit": "%"},
      {"measurement": "Percent inhibition of specific radioligand binding", "setting": "[6]", "result": 1, "unit": "%"},
      {"measurement": "Percent inhibition of specific radioligand binding", "setting": "[7]", "result": 7, "unit": "%"},
      {"measurement": "Percent inhibition of specific radioligand binding", "setting": "[8]", "result": 6, "unit": "%"},
      {"measurement": "Percent inhibition of specific radioligand binding", "setting": "[9]", "result": 14, "unit": "%"},
      {"measurement": "Percent inhibition of specific radioligand binding", "setting": "[10]", "result": 42, "unit": "%"},
      {"measurement": "Percent inhibition of specific radioligand binding", "setting": "[11]", "result": 10, "unit": "%"},
      {"measurement": "Percent inhibition of specific radioligand binding", "setting": "[12]", "result": 33, "unit": "%"},
      {"measurement": "Percent inhibition of specific radioligand binding", "setting": "[13]", "result": 0, "unit": "%"},
      {"measurement": "Percent inhibition of specific radioligand binding", "setting": "[14]", "result": 4, "unit": "%"},
      {"measurement": "Percent inhibition of specific radioligand binding", "setting": "[15]", "result": 6, "unit": "%"},
      {"measurement": "Percent inhibition of specific radioligand binding", "setting": "[16]", "result": "−3", "unit": "%"},
      {"measurement": "Percent inhibition of specific radioligand binding", "setting": "[17]", "result": "−14", "unit": "%"},
      {"measurement": "Percent inhibition of specific radioligand binding", "setting": "[18]", "result": 10, "unit": "%"},
      {"measurement": "Potency relative to IMQ in causing TLR7-dependent cytokine induction", "setting": "[19]", "result": 100, "unit": "times"},
      {"measurement": "Percent inhibition of specific radioligand binding", "setting": "[20]", "result": 18, "unit": "%"},
      {"measurement": "Percent inhibition of specific radioligand binding", "setting": "[21]", "result": "−7", "unit": "%"},
      {"measurement": "Percent inhibition of enzyme activity", "setting": "[22]", "result": "−4", "unit": "%"},
      {"measurement": "Percent inhibition of specific radioligand binding", "setting": "[23]", "result": 21, "unit": "%"},
      {"measurement": "Percent inhibition of specific radioligand binding", "setting": "[24]", "result": 9, "unit": "%"},
      {"measurement": "Potency of hIL-12, hIL-6 and hIFN-α induction compared with IMQ", "setting": "[25]", "result": "higher potency"},
      {"measurement": "Percent inhibition of specific radioligand binding", "setting": "[26]", "result": 7, "unit": "%"},
      {"measurement": "Percent inhibition of specific radioligand binding", "setting": "[27]", "result": 10, "unit": "%"},
      {"measurement": "Percent inhibition of specific radioligand binding", "setting": "[28]", "result": 0, "unit": "%"},
      {"measurement": "Percent inhibition of specific radioligand binding", "setting": "[29]", "result": 18, "unit": "%"},
      {"measurement": "Percent inhibition of specific radioligand binding", "setting": "[30]", "result": "−3", "unit": "%"},
      {"measurement": "Percent inhibition of specific radioligand binding", "setting": "[31]", "result": 5, "unit": "%"},
      {"measurement": "Percent inhibition of enzyme activity", "setting": "[32]", "result": 0, "unit": "%"},
      {"measurement": "Percent inhibition of specific radioligand binding", "setting": "[33]", "result": "−5", "unit": "%"},
      {"measurement": "Percent inhibition of specific radioligand binding", "setting": "[34]", "result": 15, "unit": "%"},
      {"measurement": "Percent inhibition of specific radioligand binding", "setting": "[35]", "result": 2, "unit": "%"},
      {"measurement": "Percent inhibition of specific radioligand binding", "setting": "[36]", "result": 1, "unit": "%"},
      {"measurement": "Percent inhibition of enzyme activity", "setting": "[37]", "result": "−1", "unit": "%"},
      {"measurement": "Percent inhibition of specific radioligand binding", "setting": "[38]", "result": 10, "unit": "%"},
      {"measurement": "Percent inhibition of specific radioligand binding", "setting": "[39]", "result": 3, "unit": "%"},
      {"measurement": "Percent inhibition of specific radioligand binding", "setting": "[40]", "result": 3, "unit": "%"}
    ]}
  ]
}
